Measured values as given in patent US20170107257A1, “CYCLIC APELIN ANALOGS” (LANTHIOPEP B.V., priority 2014, published 2017).
Like-named read-outs stand apart in the source and are kept apart here. Numbered stars: 1 amine (or outer) side, 2 acyl side, 3 side chain; on linkers, the order of the positions; unused ones are H or OH. Bridge positions count the residues as written; N and C are the ends. Square brackets hold non-standard residues; d marks the D form. Peptide text beside a SMILES is read from it. ξ: configuration not given here. ξAbu(3ξ-yl) = CC(C(N[*:1])C(=O)[*:2])[*:3]; pGlu = O=C1CC[C@@H](C(=O)O)N1; ξC = NC(CS)C(=O)O

How the values were obtained:
hAPJ [1] = target: T1, hAPJ (Homo sapiens, UniProt P35414); assay: beta arrestin assay (DiscoverX); assay type: cell-based; conditions: for Ratio β-arrestin/cAMP: ratio of β-arrestin EC50 to cAMP EC50; for EC50: read-out: β-arrestin EC50
T1 sequence (P35414 1-380): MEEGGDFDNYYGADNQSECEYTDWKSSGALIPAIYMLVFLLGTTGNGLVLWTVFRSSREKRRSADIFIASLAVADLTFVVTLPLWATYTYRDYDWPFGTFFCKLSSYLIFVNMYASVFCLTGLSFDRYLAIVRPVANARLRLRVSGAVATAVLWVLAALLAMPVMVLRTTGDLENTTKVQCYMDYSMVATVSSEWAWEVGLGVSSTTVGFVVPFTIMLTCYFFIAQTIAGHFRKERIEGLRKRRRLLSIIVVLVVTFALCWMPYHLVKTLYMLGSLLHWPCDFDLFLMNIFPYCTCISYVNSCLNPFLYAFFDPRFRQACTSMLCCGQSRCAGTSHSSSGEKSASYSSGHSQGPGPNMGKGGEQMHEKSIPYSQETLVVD
Description: (§1) (Me)lan apelin variants were tested with cAMP and beta arrestin assays from the company DiscoverX.

hAPJ [2] = target: T1, hAPJ; assay: hAPJ receptor internalization assay (APJ-GFP translocation, HEK293); assay type: cell-based; set-up: expressed in transfected cells; host or cells: HEK293, adenoviral transduction (Ad-GFP-hAPJ); conditions: 500 nM max, read-out: Relative EC50 (nM), hAPJ internalisation
Description: HEK293 cells are seeded 24 hours prior to experiment at 50% confluence in 2×F75 flasks. The next morning, cells are trypsinized, vortexed for 60 seconds and passed through a 40 micron mesh filter. Cells are resuspended at a density of 300,000 cells/ml in OptiMEM+2% FBS, and Ad-GFP-hAPJ virus is added at an MOI of 1 PFU/cell. Cells are vortexed and dispensed into 96 well clear bottom, black dishes at a concentration of 10,000 cells/well. Cells are maintained at room temperature for 30 minutes to allow cell attachment to the dish prior to Incubation overnight at 37° C. in a 5% CO2 incubator. Next morning, apelin analogs are added in a concentration response curve (500 nM max). APJ-GFP translocation is observed and documented on Olympus FV con-focal microscope.

hAPJ [3] = target: T1, hAPJ; assay: cAMP assay (DiscoverX); assay type: cell-based
Description: as §1

hAPJ [4] = target: T2, hAPJ (Homo sapiens, UniProt P35414); assay: hAPJ β-arrestin recruitment assay (PathHunter, CHO-K1); assay type: cell-based; conditions: for EC50: 90 min incubation at 37° C., read-out: Relative EC50, Arrestin recruitment
T2 construct: host or cells: CHO-K1
T2 sequence (P32121 whole entry partner, one chain of several): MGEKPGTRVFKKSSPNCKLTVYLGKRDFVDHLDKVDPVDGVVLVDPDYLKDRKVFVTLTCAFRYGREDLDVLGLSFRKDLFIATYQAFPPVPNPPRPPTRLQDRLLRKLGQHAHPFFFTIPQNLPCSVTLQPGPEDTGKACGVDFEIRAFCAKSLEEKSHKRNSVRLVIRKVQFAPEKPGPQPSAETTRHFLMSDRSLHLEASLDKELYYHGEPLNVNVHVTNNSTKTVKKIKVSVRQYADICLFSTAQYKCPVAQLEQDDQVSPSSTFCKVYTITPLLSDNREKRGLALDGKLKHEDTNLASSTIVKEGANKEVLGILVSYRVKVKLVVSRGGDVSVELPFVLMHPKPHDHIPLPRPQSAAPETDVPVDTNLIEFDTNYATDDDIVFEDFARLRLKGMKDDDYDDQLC
Description: Stimulation of hAPJ interaction with 6-arrestin is studied using the PathHunter™ system from DiscoveRx. CHO-K1 cell line was engineered to co-express the ProLink/Enzyme donor (PK)-tagged APJ and the enzyme activator (EA)-tagged 6-arrestin fusion proteins. Upon GPCR activation, enzyme fragment complementation occurs, to produce an active β-Gal enzyme. These cells are seeded at a density of 15000 cells/well. […] Following 90 min incubation at 37° C. with the compounds, cells are lysed and incubated with PathHunter reagent for 1 hour at room temperature. Samples are then read with an ultrasensitive luminescence protocol using an Envision instrument (Perkin Elmer).

[5] = target: T3, HEK293 cells expressing recombinant APJ receptors (Homo sapiens, UniProt P35414); assay: Forskolin-stimulated cAMP assay (HTRF); assay type: cell-based; conditions: 10 μM forskolin, 0.5 mM IBMX, 40 min; read-out: Relative EC50 (nM), cAMP
T3 construct: expressed in transfected cells; host or cells: HEK293
T3 sequence (P35414 1-380): T1 sequence (P35414 1-380)
Description: Cyclic AMP level in HEK293 cells expressing recombinant APJ receptors is assayed by an HTRF competitive immunoassay. Cells at a density of 4000 cells/well are resuspended in assay buffer (HBSS containing Ca^2+ and Mg^2+ supplemented with 0.1% BSA and 5 mM HEPES) and added to the assay plate. Incubation for 40 min at room temperature is started with the addition of increasing concentrations of the compounds containing 10 μM forskolin and 0.5 mM IBMX. Reaction is stopped by addition of lysis buffer including d2-labeled cAMP, followed by addition of cryptate-labeled anti-cAMP monoclonal antibody, according to the manufacturer instructions. Time-resolved fluorescence at 620 and 665 nm is measured in an Envision instrument after 2 hour incubation at room temperature in the dark. cAMP content in the samples is determined by interpolation in a cAMP standard curve.

[6] = Stability of apelin analogs in rat plasma; assay type: in vitro ADME
Description: Stability of apelin analogs in rat plasma. […] Samples were quenched by acidifying to final concentration of 5% TFA. Samples were analyzed on HPLC. Peak heights were plotted as relative to the initial peak heights.

hAPJ [7] = target: T1, hAPJ; assay: APJ competition binding assay ([125I]-Apelin 13, SPA, HEK293 membranes); set-up: expressed in transfected cells; host or cells: HEK293, adenoviral transduction (Ad-GFP-hAPJ); conditions: competition with 0.06 nM [Glp65,Nle75,Tyr77][125I]-Apelin 13; read-out: Relative IC50, hAPJ BINDING
Description: [Glp^65, Nle^75, Tyr^77][^125I]-Apelin 13 binding experiments are carried out in SPA 96-well format. Membranes used in this assay are prepared from HEK293 cells stably expressing either recombinant hAPJ or rAPJ. The incubation is initiated by the addition of a mixture of WGA PVT SPA beads (0.5 mg/well) and 0.08 μg of membranes to an assay buffer (25 mM HEPES, 10 mM MgCl2, 1 mM CaCl2, 0.1% BSA, pH7.4) containing 0.06 nM [Glp^65, Nle^75, Tyr^77][^125I]-Apelin 13 and increasing concentrations of the tested compound (10 point concentration response curves). Non-specific binding is determined in the presence of 100 nM apelin 17. Samples are incubated during eight hours at room temperature (22° C.). Then, 96-well plates are read in a Microbeta Trilux.

[8] = tested on: human immunodeficiency virus; conditions: cited from earlier work

Row | Ratio β-arrestin/cAMP (hAPJ [1]) | EC50 (hAPJ [1]) | EC50 (hAPJ [2]) | EC50 (hAPJ [3]) | activity in arrestin recruitment assay (hAPJ [4]) | EC50 (hAPJ [4]) | EC50 [5] | half-life at 0.1 mg/ml ([6]; rat, plasma, pH 7.4) | IC50 (hAPJ [7]) | SMILES | half-life at 0.1 mg/ml ([6]; 10% rat plasma, pH 7.4, 37° C., 0.1 mg/ml, read-out: T50 stability in rat plasma (converted)) | blocking of HIV entry into cells [8]
1 | 9 | 67 nM | 1.25 nM | 7 nM | significant activity | 14.1 nM | 29.3 nM | 9 h | 115 nM | CSCC[C@H](NC(=O)[C@@H]1CCCN1C(=O)C1CSC(C)C(NC(=O)[C@H](CC(C)C)NC(=O)[C@H](CCCNC(=N)N)NC(=O)[C@@H]2CCCN2C(=O)[C@H](CCCNC(=N)N)NC(=O)[C@@H]2CCC(=O)N2)C(=O)N[C@@H](Cc2c[nH]cn2)C(=O)N[C@@H](CCCCN)C(=O)N1)C(=O)N1CCC[C@H]1C(=O)N[C@@H](Cc1ccccc1)C(=O)O (stereo partly shown) [pEApeM5, pERPRLmelanHKmelanPMPF] ([pGlu]RPRL[ξAbu(3ξ-yl)]HK[ξC]PMPF-OH; thioether 6-9; C-terminus assumed) |  | 
2 | >8 | > 1000 nM | > 1000 nM | 125 nM |  | > 300 nM | > 300 nM | 24 h | > 1000 nM | CSCC[C@H](NC(=O)C1CSC(C)C(NC(=O)[C@H](CC(C)C)NC(=O)[C@H](CCCNC(=N)N)NC(=O)[C@@H]2CCCN2C(=O)[C@H](CCCNC(=N)N)NC(=O)[C@@H]2CCC(=O)N2)C(=O)N[C@@H](Cc2c[nH]cn2)C(=O)N[C@@H](CCCCN)C(=O)NCC(=O)N1)C(=O)N1CCC[C@H]1C(=O)N[C@@H](Cc1ccccc1)C(=O)O (stereo partly shown) [pEApeM8, pERPRLmeLanHKGmeLanMPF] ([pGlu]RPRL[ξAbu(3ξ-yl)]HKG[ξC]MPF-OH; thioether 6-10; C-terminus assumed) |  | 
3 |  |  |  |  |  |  |  |  |  | CSCC[C@H](NC(=O)[C@@H]1CCCN1C(=O)CNC(=O)[C@H](CCCCN)NC(=O)[C@H](Cc1c[nH]cn1)NC(=O)[C@H](CO)NC(=O)[C@H](CC(C)C)NC(=O)[C@H](CCCNC(=N)N)NC(=O)[C@@H]1CCCN1C(=O)[C@H](CCCNC(=N)N)NC(=O)[C@@H](N)CCC(N)=O)C(=O)N1CCC[C@H]1C(=O)N[C@@H](Cc1ccccc1)C(=O)O [reference compound] | 1 h | poorly blocks
